Test results reported in ChEMBL document CHEMBL1201862, “PubChem BioAssay data set” (2004).
The source made the active and inactive calls.

Columns and labels:
Paired box protein Pax-8 = Paired box protein Pax-8 (Homo sapiens, UniProt Q06710); experiment: inhibitors of PAX8-driven TPO luciferase reporter, dose response, RMG-I cells, cherry-pick (AID 687027); type: functional, cell-based;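 also: luciferase reporter driven by Pax8 target thyroperoxidase promoter measured by SteadyGlo luminescence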
[1] = NIH:OVCAR-3 ovarian cancer cell cytotoxicity, dose response, PAX8 inhibitor project, plate reader, dry powder samples (AID 743044); type: functional, cell-based
[2] = IGROV1 ovarian cancer cell cytotoxicity, dose response, PAX8 inhibitor project, plate reader, dry powder samples (AID 743043); type: functional, cell-based; conditions: IGROV-1
[3] = cytotoxicity in OVCAR8 ovarian cancer cells, dose response, PAX8 project, cell-based, plate reader, dry powder samples (AID 743197); type: functional; conditions: OVCAR-8
[4] = biological target: T1, Lysosomal acid glucosylceramidase (Homo sapiens, UniProt P04062); experiment: Dose response cell-based high throughput screening assay to identify enhancers of beta-glucosidase activity. [Related pubchem assays: 784 ]; type: functional
T1 sequence (P04062 whole entry): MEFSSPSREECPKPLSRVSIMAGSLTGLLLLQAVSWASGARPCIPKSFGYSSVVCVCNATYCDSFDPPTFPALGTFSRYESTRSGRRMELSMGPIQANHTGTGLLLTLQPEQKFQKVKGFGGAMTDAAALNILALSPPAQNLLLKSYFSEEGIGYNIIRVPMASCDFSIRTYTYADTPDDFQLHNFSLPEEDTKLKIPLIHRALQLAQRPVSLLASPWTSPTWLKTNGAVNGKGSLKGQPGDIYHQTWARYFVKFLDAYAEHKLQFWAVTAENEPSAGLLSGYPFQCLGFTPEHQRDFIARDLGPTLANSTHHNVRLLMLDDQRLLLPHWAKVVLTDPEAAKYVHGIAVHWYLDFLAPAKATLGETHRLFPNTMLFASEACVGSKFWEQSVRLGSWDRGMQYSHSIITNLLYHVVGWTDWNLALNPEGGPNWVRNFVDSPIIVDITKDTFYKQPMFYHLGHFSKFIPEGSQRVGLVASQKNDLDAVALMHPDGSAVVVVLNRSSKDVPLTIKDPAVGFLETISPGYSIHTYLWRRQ

Prothrombin = Prothrombin (Homo sapiens, UniProt P00734); experiment: Thrombin 1536 HTS Dose Response Confirmation. [Related pubchem assays: 1046 (Thrombin 1536 HTS; hits were confirmed in this assay)]; type: functional
fMet-Leu-Phe receptor = biological target: T2, fMet-Leu-Phe receptor (Homo sapiens, UniProt P21462); experiment: FPR ligands, dose response (AID 519); type: functional
T2 sequence (P21462 whole entry): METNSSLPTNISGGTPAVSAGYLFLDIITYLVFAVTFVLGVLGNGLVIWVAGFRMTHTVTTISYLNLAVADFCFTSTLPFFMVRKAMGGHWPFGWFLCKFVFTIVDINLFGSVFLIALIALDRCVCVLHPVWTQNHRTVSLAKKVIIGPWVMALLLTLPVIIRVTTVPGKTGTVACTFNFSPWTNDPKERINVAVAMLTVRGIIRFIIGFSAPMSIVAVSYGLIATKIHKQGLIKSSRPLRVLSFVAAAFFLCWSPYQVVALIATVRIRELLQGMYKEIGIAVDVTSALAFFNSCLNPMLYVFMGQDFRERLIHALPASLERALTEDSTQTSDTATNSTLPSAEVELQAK

[5] = biological target: T3, Luciferin 4-monooxygenase (Photinus pyralis, UniProt P08659); experiment: Counter Screen for Luciferase-based Assay Positives. [Related pubchem assays: 620, 618, 411 ]
T3 sequence (P08659 whole entry): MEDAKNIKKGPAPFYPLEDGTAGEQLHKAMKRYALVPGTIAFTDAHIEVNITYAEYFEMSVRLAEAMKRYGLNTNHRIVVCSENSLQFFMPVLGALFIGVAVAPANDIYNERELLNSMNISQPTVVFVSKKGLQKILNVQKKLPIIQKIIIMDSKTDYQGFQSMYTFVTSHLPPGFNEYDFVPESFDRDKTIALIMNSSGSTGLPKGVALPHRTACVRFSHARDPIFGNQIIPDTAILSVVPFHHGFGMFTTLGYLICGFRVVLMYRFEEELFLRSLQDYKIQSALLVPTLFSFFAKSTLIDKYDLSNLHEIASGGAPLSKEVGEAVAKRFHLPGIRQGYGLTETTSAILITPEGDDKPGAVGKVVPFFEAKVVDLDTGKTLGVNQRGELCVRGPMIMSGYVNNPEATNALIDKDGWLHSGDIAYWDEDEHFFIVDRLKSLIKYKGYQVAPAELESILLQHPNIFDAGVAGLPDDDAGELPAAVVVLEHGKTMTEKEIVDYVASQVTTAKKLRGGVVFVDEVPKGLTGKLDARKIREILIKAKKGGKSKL

[6] = biological target: T3, Luciferin 4-monooxygenase; experiment: firefly luciferase enzyme inhibitors, dose response, biochemical, luminescence (AID 1891)
[7] = Luminescence Cell-Based Dose Confirmation HTS to Identify Inhibitors of Platelet Dense Granule Release. [Related pubchem assays: 1663 (Primary HTS), 1678 (Summary of Project)]; type: functional
HT-1080 = experiment: cytotoxicity in HT1080 fibrosarcoma cells, cell-based, fluorescence readout (AID 620); type: functional; conditions: Homo sapiens
[8] = A549 cell cytotoxicity, dose response, cytotoxicity control, plate reader, cherry-pick, antagonist series (AID 743412); type: functional, cell-based
[9] = HepG2 cell cytotoxicity, dose response, cytotoxicity control, plate reader, cherry-pick, antagonist series (AID 743416); type: functional, cell-based
[10] = LGR2 antagonists, dose response, cell-based, HEK293, CRE-luciferase reporter, cherry pick, set 2 (AID 743343); type: functional;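 also: transfected cells were stimulated with diluted bursicon conditioned medium after compound addition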
[11] = MC4R antagonists, dose response, counter-screen for LGR2 antagonist project, cell-based, plate reader, cherry pick (AID 743444); type: functional;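 also: transfected HEK 293 cells stimulated with alpha-MSH peptide; potency of inhibitors of the alpha-MSH evoked signal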
[12] = biological target: T4, Oxysterols receptor LXR-beta (Homo sapiens, UniProt P55055); type: functional, cell-based;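 also: Cell-based luminescence dose-response assay of agonist activity at LXR, run as a confirmatory counterscreen to a daf-12 agonist screen; HEK293 cells with Gal4-LXR fusion and GAL4-driven luciferase reporter; agonist potency from rising luciferase signal of a Gal4-LXR reporter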
T4 sequence (P55055 whole entry): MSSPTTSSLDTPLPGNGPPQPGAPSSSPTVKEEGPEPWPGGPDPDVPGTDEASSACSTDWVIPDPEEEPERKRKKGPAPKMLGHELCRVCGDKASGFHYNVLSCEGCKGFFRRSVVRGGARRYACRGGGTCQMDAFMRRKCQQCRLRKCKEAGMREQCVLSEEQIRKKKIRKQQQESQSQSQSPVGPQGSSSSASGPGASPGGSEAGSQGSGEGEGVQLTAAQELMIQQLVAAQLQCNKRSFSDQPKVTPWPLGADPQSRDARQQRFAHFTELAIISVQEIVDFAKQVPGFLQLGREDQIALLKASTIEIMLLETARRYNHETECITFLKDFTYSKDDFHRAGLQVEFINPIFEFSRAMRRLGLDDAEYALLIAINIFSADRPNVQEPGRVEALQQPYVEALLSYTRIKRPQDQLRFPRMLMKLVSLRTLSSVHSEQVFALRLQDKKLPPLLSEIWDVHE

cells [13] = experiment: cells
[14] = biological target: Protein-tyrosine kinase 2-beta (Homo sapiens, UniProt Q14289);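 also: potency of inhibitors of PYK2 kinase phosphorylation of poly-GT substrate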
Sequence of Protein-tyrosine kinase 2-beta (Q14289 whole entry): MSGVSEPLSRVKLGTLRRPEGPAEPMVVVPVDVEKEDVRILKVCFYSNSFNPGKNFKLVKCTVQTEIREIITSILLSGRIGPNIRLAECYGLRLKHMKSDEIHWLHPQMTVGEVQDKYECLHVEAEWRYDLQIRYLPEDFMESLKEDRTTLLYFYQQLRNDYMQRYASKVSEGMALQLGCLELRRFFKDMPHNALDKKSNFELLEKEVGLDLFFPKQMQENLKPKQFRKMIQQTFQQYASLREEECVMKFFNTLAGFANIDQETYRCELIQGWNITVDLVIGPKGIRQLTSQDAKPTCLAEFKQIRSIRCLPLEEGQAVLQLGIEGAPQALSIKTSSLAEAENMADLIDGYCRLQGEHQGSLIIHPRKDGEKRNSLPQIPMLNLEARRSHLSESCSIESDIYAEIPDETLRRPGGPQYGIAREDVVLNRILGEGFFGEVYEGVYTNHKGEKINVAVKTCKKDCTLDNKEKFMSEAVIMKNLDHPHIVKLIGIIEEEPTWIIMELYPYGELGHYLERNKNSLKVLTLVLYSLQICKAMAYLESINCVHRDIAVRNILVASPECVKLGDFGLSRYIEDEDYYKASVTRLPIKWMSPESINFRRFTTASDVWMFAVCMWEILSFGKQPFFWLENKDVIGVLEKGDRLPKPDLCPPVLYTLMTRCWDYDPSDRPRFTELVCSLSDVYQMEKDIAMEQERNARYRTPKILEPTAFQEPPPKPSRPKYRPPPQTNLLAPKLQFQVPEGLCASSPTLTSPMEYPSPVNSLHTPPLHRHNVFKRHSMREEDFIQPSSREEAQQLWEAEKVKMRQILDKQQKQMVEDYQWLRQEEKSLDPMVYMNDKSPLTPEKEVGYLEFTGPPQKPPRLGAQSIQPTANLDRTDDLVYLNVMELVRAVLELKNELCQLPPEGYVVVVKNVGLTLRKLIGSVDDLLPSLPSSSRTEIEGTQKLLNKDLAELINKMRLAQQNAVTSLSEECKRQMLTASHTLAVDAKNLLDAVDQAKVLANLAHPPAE

Cytochrome P450 2C19 = Cytochrome P450 2C19 (Homo sapiens, UniProt P33261); experiment: Cytochrome panel assay with activity outcomes. Panel member name: p450-cyp2c19 Compounds with AC50 equal or less than 10 uM are considered active; type: functional; conditions: read-out: AC50
Sequence of Cytochrome P450 2C19 (P33261 whole entry): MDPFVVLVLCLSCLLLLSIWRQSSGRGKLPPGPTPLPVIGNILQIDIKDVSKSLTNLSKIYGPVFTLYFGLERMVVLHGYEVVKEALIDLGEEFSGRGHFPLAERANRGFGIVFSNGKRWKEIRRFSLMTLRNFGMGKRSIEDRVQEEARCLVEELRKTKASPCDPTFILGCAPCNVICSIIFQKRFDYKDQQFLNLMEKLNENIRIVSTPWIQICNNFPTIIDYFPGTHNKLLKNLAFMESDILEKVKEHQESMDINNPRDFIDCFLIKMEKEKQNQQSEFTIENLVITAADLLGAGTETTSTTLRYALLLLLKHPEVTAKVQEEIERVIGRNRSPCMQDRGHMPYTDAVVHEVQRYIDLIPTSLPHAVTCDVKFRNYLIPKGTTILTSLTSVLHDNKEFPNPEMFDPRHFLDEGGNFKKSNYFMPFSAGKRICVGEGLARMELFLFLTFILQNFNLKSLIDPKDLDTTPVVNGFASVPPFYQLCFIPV

Cytochrome P450 3A4 = Cytochrome P450 3A4 (Homo sapiens, UniProt P08684);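 also: CYP3A4 tested as one member of a cytochrome P450 panel screen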
Sequence of Cytochrome P450 3A4 (P08684 whole entry): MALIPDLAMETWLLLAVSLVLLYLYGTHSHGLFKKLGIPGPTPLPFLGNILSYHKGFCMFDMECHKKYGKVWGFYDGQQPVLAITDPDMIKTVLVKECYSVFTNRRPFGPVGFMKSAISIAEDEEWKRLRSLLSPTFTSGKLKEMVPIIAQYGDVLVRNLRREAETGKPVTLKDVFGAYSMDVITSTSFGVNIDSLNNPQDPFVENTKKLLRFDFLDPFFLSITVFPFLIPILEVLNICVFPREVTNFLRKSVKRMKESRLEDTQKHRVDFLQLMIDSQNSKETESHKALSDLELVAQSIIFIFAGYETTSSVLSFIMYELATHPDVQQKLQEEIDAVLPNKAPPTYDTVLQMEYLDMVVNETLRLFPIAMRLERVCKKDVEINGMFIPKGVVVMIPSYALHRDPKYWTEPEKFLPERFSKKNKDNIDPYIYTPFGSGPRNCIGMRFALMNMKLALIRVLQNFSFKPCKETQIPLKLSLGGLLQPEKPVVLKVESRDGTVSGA

cells [15] = type: functional, cell-based
cells [16] = type: functional, cell-based; remark: listed apart in the source
[17] = HEK293 cell cytotoxicity, dose response, cytotoxicity control, plate reader, cherry-picked samples (AID 743446); type: functional, cell-based
Mucolipin-3 = biological target: T5, Mucolipin-3 (Homo sapiens, UniProt Q8TDD5); experiment: Dose response cell-based high-throughput screening assay for agonists of the transient receptor potential channel ML3 (TRPML3). [Related pubchem assays: 1526, 1424, 1448 ]; type: functional
T5 sequence (Q8TDD5 whole entry): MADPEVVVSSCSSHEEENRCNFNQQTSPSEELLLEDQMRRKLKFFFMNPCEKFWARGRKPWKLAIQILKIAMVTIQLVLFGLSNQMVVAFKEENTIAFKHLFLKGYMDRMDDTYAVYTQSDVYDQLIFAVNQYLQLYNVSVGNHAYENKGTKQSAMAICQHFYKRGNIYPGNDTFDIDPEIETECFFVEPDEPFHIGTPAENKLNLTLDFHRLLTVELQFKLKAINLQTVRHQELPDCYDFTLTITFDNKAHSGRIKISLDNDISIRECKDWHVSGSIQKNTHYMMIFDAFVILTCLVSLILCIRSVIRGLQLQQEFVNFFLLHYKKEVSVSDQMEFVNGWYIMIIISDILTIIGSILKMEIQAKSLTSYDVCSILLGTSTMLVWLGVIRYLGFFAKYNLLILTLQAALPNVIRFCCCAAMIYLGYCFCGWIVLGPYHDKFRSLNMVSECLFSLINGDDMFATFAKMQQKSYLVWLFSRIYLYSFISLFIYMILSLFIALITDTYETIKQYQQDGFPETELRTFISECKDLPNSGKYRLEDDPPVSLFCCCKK

Ion channel NompC = Ion channel NompC (Danio rerio, UniProt Q7T1G6); experiment: Fluorescence counterscreen assay for TRPML3 agonists: dose response cell-based high-throughput screening assay to identify agonists of the transient receptor potential channel N1 (TRPN1). [Related pubchem assays: 1526, 1424, 1448 ]; type: functional
Sequence of Ion channel NompC (Q7T1G6 whole entry): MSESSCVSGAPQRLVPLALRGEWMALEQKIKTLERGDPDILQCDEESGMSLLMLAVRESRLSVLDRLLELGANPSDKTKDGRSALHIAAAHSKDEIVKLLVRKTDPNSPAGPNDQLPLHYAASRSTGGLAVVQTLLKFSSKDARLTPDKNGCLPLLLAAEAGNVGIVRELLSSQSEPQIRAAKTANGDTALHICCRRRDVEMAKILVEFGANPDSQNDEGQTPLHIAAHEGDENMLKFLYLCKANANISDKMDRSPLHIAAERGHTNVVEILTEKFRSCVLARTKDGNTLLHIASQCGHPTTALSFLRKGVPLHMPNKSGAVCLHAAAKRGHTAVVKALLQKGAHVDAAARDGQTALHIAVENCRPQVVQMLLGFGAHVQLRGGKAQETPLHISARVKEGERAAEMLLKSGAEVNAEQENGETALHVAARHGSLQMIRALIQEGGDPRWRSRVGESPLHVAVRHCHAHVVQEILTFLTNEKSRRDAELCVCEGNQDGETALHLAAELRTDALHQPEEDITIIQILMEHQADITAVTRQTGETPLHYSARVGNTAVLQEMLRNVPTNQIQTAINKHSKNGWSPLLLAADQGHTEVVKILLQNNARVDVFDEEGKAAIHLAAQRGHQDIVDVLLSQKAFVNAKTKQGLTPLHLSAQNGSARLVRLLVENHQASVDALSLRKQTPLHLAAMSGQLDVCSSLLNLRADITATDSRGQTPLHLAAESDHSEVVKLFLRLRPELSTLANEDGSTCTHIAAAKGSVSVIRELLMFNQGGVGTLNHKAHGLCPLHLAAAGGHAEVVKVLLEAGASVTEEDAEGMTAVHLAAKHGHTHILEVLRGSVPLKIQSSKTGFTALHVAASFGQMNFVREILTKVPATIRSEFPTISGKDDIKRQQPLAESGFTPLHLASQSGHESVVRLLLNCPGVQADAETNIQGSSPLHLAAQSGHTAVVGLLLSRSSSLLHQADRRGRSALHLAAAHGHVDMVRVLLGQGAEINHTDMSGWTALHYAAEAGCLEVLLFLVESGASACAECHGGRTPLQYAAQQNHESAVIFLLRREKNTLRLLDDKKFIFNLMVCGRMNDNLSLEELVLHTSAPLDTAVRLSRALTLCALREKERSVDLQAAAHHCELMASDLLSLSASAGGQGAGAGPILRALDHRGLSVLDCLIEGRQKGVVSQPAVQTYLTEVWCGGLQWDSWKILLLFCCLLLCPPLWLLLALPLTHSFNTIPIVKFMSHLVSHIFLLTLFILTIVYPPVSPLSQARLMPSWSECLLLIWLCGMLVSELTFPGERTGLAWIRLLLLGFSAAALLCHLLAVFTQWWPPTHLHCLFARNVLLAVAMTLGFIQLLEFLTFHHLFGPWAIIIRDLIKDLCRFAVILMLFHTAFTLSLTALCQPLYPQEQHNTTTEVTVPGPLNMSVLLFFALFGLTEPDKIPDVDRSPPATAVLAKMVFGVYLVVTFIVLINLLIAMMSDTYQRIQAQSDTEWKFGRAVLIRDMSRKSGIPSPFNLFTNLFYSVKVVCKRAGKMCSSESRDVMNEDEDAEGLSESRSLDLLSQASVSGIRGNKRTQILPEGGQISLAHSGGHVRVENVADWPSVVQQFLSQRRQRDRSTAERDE

[18] = biological target: Heat shock protein HSP 90-alpha (Homo sapiens, UniProt P07900); experiment: Luminescence-based dose response biochemical high throughput screening assay for inhibitors of the Heat Shock Protein 90 (HSP90). [Related pubchem assays: 1831 (Summary AID.), 1846 (Confirmation screen.), 1789 (Primary screen.)]
Cytochrome P450 1A2 = biological target: T6, Cytochrome P450 1A2 (Homo sapiens, UniProt P05177);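 also: PubChem cytochrome P450 panel assay, CYP1A2 panel member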
T6 sequence (P05177 whole entry): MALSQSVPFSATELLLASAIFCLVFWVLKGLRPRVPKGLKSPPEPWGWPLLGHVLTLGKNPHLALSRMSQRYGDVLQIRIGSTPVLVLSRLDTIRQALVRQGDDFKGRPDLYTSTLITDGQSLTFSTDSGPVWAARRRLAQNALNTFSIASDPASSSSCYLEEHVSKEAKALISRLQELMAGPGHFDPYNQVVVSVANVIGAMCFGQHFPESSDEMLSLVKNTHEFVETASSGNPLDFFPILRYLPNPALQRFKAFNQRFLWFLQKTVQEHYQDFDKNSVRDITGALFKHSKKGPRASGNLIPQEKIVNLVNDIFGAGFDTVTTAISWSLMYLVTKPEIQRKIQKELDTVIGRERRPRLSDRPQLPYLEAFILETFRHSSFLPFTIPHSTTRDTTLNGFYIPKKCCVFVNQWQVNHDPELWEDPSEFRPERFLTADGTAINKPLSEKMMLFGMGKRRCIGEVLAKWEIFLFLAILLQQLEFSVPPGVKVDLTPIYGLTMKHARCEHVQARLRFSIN

Sequence of Paired box protein Pax-8 (Q06710 whole entry): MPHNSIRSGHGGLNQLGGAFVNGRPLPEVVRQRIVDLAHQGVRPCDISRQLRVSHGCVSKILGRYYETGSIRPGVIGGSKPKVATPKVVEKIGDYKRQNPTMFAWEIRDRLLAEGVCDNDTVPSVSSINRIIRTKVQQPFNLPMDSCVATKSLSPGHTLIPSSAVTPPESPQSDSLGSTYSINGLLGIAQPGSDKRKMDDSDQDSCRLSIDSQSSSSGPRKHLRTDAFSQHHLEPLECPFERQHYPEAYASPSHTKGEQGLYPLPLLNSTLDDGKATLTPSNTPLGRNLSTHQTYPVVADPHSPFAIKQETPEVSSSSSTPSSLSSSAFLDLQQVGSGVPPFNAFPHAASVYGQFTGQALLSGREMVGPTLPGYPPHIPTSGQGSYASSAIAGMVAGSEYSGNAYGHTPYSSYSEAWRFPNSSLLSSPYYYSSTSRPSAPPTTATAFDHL

Structure (SMILES): Cc1ccc(S(=O)(=O)Nc2ccc3c(c2)C(=O)N([C@@H](C)CO)C[C@H](C)[C@H](CN(C)Cc2ccc(C(F)(F)F)cc2)OCCCC[C@H](C)O3)cc1
- AC50 (Paired box protein Pax-8): 6.16 µM (active)
- AC50 [1]: 29.8 µM (active)
- AC50 [2]: 42.5 µM (active)
- AC50 [3]: 25.4 µM (active)

Structure (SMILES): CCN(CC)S(=O)(=O)c1ccc(NC(=O)CN(c2cccc(F)c2)S(C)(=O)=O)cc1
- EC50 [4]: > 50 µM (not active)

Structure (SMILES): Cc1nc(C)c(-c2csc(NCc3ccco3)n2)s1
- EC50 [4]: > 50 µM (not active)

Structure (SMILES): CCCn1c2c(c(O)c(C(=O)Nc3nccs3)c1=O)CCCC2
- IC50 (Prothrombin): > 50 µM (not active)

Structure (SMILES): CCC(=O)Nc1c(C#N)c2nc3ccccc3nc2n1-c1ccccc1C
- Ki (fMet-Leu-Phe receptor): 12 µM (active)

Structure (SMILES): COc1cccc(-c2nc(-c3ccccn3)no2)c1
- EC50 [5]: 6.27 µM (active)
- EC50 [6]: 4.73 µM (active)
- EC50 [7]: 8.12 µM (active)
- EC50 (HT-1080): > 50 µM (not active)

Structure (SMILES): Cc1cc(-c2ccccc2)n2ncc(-c3ccccc3)c2n1
- AC50 [8]: > 52 µM (inactive)
- AC50 [9]: 39.3 µM (active)
- AC50 [10]: 4.98 µM (active)
- AC50 [11]: 7.1 µM (active)
- EC50 [12]: > 67.5 µM (inactive)
- EC50 (cells [13]): > 67.5 µM (inactive)

Structure (SMILES): Cc1csc(NC(=O)c2cc3c(s2)CCCC3)n1
- EC50 [5]: 2.99 µM (active)
- EC50 (HT-1080): 25.7 µM (active)

Structure (SMILES): O=C(CSc1nc(-c2ccccc2)nn1C(=O)c1ccccc1)Nc1cccc([N+](=O)[O-])c1
- IC50 (Prothrombin): 1.39 µM (active)

Structure (SMILES): C[C@@H]1CCCCO[C@H](CN(C)Cc2ccc(Cl)c(Cl)c2)[C@H](C)CN([C@@H](C)CO)C(=O)c2cc(NS(=O)(=O)c3ccc(Cl)cc3)ccc2O1
- AC50 (Paired box protein Pax-8): 6.76 µM (active)
- AC50 [1]: 24.6 µM (active)
- AC50 [2]: 49.7 µM (active)
- AC50 [3]: 33.7 µM (active)

Structure (SMILES): Cc1n[nH]c(C)c1N=Nc1cc(Cl)ccc1Cl
- IC50 [14]: > 69.5 µM (not active)
- AC50 (Cytochrome P450 2C19): 1.12 µM (inconclusive)
- AC50 (Cytochrome P450 3A4): 17.8 µM (inconclusive)

Structure (SMILES): Cc1cc(NC(=O)CSc2nc3ccccc3[nH]2)no1
- EC50 [4]: > 50 µM (not active)

Structure (SMILES): O=C(Nc1ccc2ccccc2c1)c1ccccc1O
- EC50 (cells [15]): > 350 µM (not active)
- EC50 (cells [16]): 6.87 µM (active)
- AC50 [8]: > 52 µM (inactive)
- AC50 [9]: 6.27 µM (active)
- AC50 [10]: 7.6 µM (active)
- AC50 [11]: 6.02 µM (active)
- EC50 [12]: > 67.6 µM (inactive)
- AC50 [17]: 7.8 µM (active)
- EC50 (cells [13]): > 67.6 µM (inactive)

Structure (SMILES): Cc1ccc(C2C3=C(O)CC(C)(C)CC3=Nc3nc(S)nc(O)c32)cc1 (stereo unspecified)
- Ki (fMet-Leu-Phe receptor): 47.9 µM (inactive)

Structure (SMILES): O=S(=O)(c1ccc2ccccc2c1)N1CCCCC1
- EC50 (Mucolipin-3): 15.1 µM (not active)
- EC50 (Ion channel NompC): > 29.9 µM (not active)

Structure (SMILES): CC(C)(C)c1ccc(C(=O)c2c[nH]c(C(=O)O)c2)cc1
- IC50 [18]: 0.469 µM (active)

Structure (SMILES): COc1ccc(CCN2C(=O)C(O)=C(C(=O)c3ccco3)C2c2cccs2)cc1OC (stereo unspecified)
- Ki (fMet-Leu-Phe receptor): 19 µM (inactive)
- AC50 (Cytochrome P450 1A2): 31.6 µM (inconclusive)
- AC50 (Cytochrome P450 3A4): 25.1 µM (inconclusive)

Structure (SMILES): O=C(O)c1cc(N/N=C/c2cccnc2)ccc1Cl
- IC50 [18]: 5.72 µM (active)

Structure (SMILES): COc1ccc(CCNC(=O)COc2ccc(N(C)S(=O)(=O)c3ccc(Cl)cc3)cc2)cc1
- EC50 (Mucolipin-3): 6.34 µM (active)
- EC50 (Ion channel NompC): > 29.9 µM (not active)

Structure (SMILES): Cc1cc(=O)oc2cc(OC(=O)c3ccco3)ccc12
- IC50 (Prothrombin): 0.949 µM (active)

Structure (SMILES): Cc1ccc(S(=O)(=O)N2CCC(C)CC2)c([N+](=O)[O-])c1
- EC50 (Mucolipin-3): 3.83 µM (active)
- EC50 (Ion channel NompC): > 29.9 µM (not active)
